Data set [1] can be described thus: Degradation of GIP and analogues by human plasma (HPLC). The data set is classed as in vitro ADME. On the procedure:
Degradation of GIP and Tyr^1-glucitol GIP by human plasma. […] […] The reactions were terminated by addition of 5 μl of TFA and the final volume adjusted to 1.0 ml using 0.1% v/v TFA/water. Samples were centrifuged (13,000 g, 5 minutes) and the supernatant applied to a C-18 Sep-Pak cartridge (Millipore-Waters) which was previously primed and washed with 0.1% (v/v) TFA/water. […] The volume was adjusted to 1.0 ml with 0.12% (v/v) TFA/water prior to HPLC purification.
HPLC analysis of degraded GIP and Tyr^1-glucitol GIP. […] Using 0.1% (v/v) TFA in 70% acetonitrile/H20, the concentration of acetonitrile in the eluting solvent was raised from 0% to 31.5% over 15 min, to 38.5% over 30 minutes and from 38.5% to 70% over 5 minutes, using linear gradients. The absorbance was monitored at 206 nm and peak areas evaluated using a model 2221 LKB integrator. Samples recovered manually were concentrated using a Speed-Vac concentrator.
Electrospray ionization-mass spectrometry (ESI-MS) was carried out as described in Example 2. Degradation of GIP and novel GIP analogues by DPP IV and human plasma was carried out as described in Example 2.

The target in data set [2] is T1, human GIP receptor (Homo sapiens, UniProt P48546).
T1 construct: expressed in transfected cells; host or cells: Chinese hamster lung (CHL) fibroblasts, stably transfected
T1 sequence (P48546 22-466): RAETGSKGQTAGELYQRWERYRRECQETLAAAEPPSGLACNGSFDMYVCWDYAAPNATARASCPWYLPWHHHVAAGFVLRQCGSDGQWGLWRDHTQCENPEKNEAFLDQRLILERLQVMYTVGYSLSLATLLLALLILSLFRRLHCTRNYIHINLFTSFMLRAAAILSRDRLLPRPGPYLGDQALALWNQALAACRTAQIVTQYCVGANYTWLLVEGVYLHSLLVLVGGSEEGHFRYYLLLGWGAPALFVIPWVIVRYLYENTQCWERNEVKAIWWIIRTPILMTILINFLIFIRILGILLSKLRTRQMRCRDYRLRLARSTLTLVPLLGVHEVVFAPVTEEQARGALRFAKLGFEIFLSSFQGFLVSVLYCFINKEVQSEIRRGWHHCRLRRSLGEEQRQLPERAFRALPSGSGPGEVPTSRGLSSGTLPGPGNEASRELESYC
Briefly: Intracellular cyclic AMP production in GIP-receptor transfected CHL fibroblasts. The class given is cell-based. On the procedure: In vitro biological activity. […] In brief, CHL cells were seeded into 12-well plates (Nünc, Roskilde, Denmark) at a density of 10^5 cells per well and allowed to grow for 48 hours before being loaded with tritiated adenine (2 μCi; TRK311; Amersham, Buckinghamshire, UK). The cells were then incubated at 37° C. for 6 hours in 1 ml DMEM supplemented with 0.5% (w/v) BSA and subsequently washed twice with HBS buffer (pH 7.4). […] The medium was subsequently removed and the cells lysed with 1 ml of 5% TCA containing 0.1 mmol/l unlabelled cyclic AMP and 0.1 mmol/l unlabelled ATP.

Data set [3] deals with T1, human GIP receptor. Briefly: GIP-stimulated cyclic AMP generation in GIP receptor transfected CHL cells (antagonism). The class given is cell-based. The settings on record: in the presence of native GIP (10^-7 M). On the procedure: Tissue culture. Chinese hamster lung (CHL) fibroblast cells stably transfected with the human GIP receptor were cultured in DMEM tissue culture medium containing 10% (v/v) foetal bovine serum, 1% (v/v) antibiotics (100 U/ml penicillin, 0.1 mg/ml streptomycin). BRIN-BD11 cells were cultured using RPMI-1640 tissue culture medium containing 10% (v/v) foetal bovine serum, 1% (v/v) antibiotics (100 U/ml penicillin, 0.1 mg/ml streptomycin). Cells were maintained in sterile tissue culture flasks (Corning Glass Works, Sunderland, UK) at 37° C. in an atmosphere of 5% CO2 and 95% air using an LEEC incubator (Laboratory Technical Engineering, Nottingham, UK).
Acute studies of cyclic AMP generation. GIP receptor transfected CHL cells were seeded into 12-well plates (Nunc, Roskilde, Denmark) at a density of 1.0×10^5 cells per well. The cells were then allowed to grow for 48 hours before being loaded with tritiated adenine (2 μCi; TRK311, Amersham, Buckinghamshire, UK) and incubated at 37° C. for 6 hours in 1 ml DMEM, supplemented with 0.5% (w/v) […]. The cells were then washed twice with HBS buffer (130 mM NaCl, 20 mM HEPES, 0.9 mM NaHPO4, 0.8 mM MgSO4, 5.4 mM KCl, 1.8 mM CaCl2, 25 mM glucose, 25 μM phenol red, pH 7.4). […]

Where [4] appears, read: human, plasma, pH 7.8, % Intact peptide remaining after incubations with human plasma.

No end group written: not given here.

`CC[C@H](C)[C@H](NC(=O)[C@H](CO)NC(=O)[C@H](Cc1ccc(O)cc1)NC(=O)[C@H](CC(=O)O)NC(=O)[C@H](CO)NC(=O)[C@@H](NC(=O)[C@H](Cc1ccccc1)NC(=O)[C@@H](NC(=O)CNC(=O)[C@H](CCC(=O)O)NC(=O)[C@H](C)NC(=O)[C@@H](N)Cc1ccc(O)cc1)[C@@H](C)O)[C@@H](C)CC)C(=O)N[C@@H](C)C(=O)N[C@@H](CCSC)C(=O)N[C@@H](CC(=O)O)C(=O)N[C@@H](CCCCN)C(=O)N[C@H](C(=O)N[C@@H](Cc1c[nH]cn1)C(=O)N[C@@H](CCC(N)=O)C(=O)N[C@@H](CCC(N)=O)C(=O)N[C@@H](CC(=O)O)C(=O)N[C@@H](Cc1ccccc1)C(=O)N[C@H](C(=O)N[C@@H](CC(N)=O)C(=O)N[C@@H](Cc1c[nH]c2ccccc12)C(=O)N[C@@H](CC(C)C)C(=O)N[C@@H](CC(C)C)C(=O)N[C@@H](C)C(=O)N[C@@H](CCC(N)=O)C(=O)N[C@@H](CCCCN)C(=O)NCC(=O)N[C@@H](CCCCN)C(=O)N[C@@H](CCCCN)C(=O)N[C@@H](CC(N)=O)C(=O)N[C@@H](CC(=O)O)C(=O)N[C@@H](Cc1c[nH]c2ccccc12)C(=O)N[C@@H](CCCCN)C(=O)N[C@@H](Cc1c[nH]cn1)C(=O)N[C@@H](CC(N)=O)C(=O)N[C@H](C(=O)N[C@H](C(=O)N[C@@H](CCC(N)=O)C(=O)O)[C@@H](C)O)[C@@H](C)CC)C(C)C)[C@@H](C)CC` [GIP 1–42, reference compound]: in data set [1], the “degradation by human plasma” value is recorded as “readily metabolised” and the “plasma degradation” value is “rapidly degraded”. The “% Intact peptide remaining after incubations with human plasma” value in data set [1] (human, plasma, 0 h) is recorded as 100%. In data set [1] (setting [4]), this molecule returned a share remaining at 2 h, 20 µg/ml of 52 ± 1%; an amount remaining at 4 h, 20 µg/ml of 23 ± 1%; a share remaining at 8 h, 20 µg/ml of 0%.
In turn, `CCCCCCCCCCCCCCCC(=O)NCCCC[C@H](NC(=O)[C@H](Cc1c[nH]c2ccccc12)NC(=O)[C@H](CC(=O)O)NC(=O)[C@H](CC(N)=O)NC(=O)[C@H](CCCCN)NC(=O)[C@H](CCCCN)NC(=O)CNC(=O)[C@H](CCCCN)NC(=O)[C@H](CCC(N)=O)NC(=O)[C@H](C)NC(=O)[C@H](CC(C)C)NC(=O)[C@H](CC(C)C)NC(=O)[C@H](Cc1c[nH]c2ccccc12)NC(=O)[C@H](CC(N)=O)NC(=O)[C@@H](NC(=O)[C@H](Cc1ccccc1)NC(=O)[C@H](CC(=O)O)NC(=O)[C@H](CCC(N)=O)NC(=O)[C@H](CCC(N)=O)NC(=O)[C@H](Cc1c[nH]cn1)NC(=O)[C@@H](NC(=O)[C@H](CCCCN)NC(=O)[C@H](CC(=O)O)NC(=O)[C@H](CCSC)NC(=O)[C@H](C)NC(=O)[C@@H](NC(=O)[C@H](CO)NC(=O)[C@H](Cc1ccc(O)cc1)NC(=O)[C@H](CC(=O)O)NC(=O)[C@H](CO)NC(=O)[C@@H](NC(=O)[C@H](Cc1ccccc1)NC(=O)[C@@H](NC(=O)CNC(=O)[C@H](CCC(=O)O)NC(=O)[C@H](C)NC(=O)[C@H](Cc1ccc(O)cc1)NC(C)=O)[C@@H](C)O)[C@@H](C)CC)[C@@H](C)CC)[C@@H](C)CC)C(C)C)C(=O)N[C@@H](Cc1c[nH]cn1)C(=O)N[C@@H](CC(N)=O)C(=O)N[C@H](C(=O)N[C@H](C(=O)N[C@@H](CCC(N)=O)C(=O)O)[C@@H](C)O)[C@@H](C)CC` [N-AcGIP(LysPAL^37)] returned an EC50 on human GIP receptor [2] of 0.013 µM.
Take “YAPGTFISDYSIAMDKIHQQDFVNWLLAQKGKKNDWKHNITQ [(Pro^3)GIP]”: the “inhibition of GIP-stimulated cyclic AMP production” value on human GIP receptor [3] is “inhibited in dose-dependent fashion”.

Usually amount remaining stands for what is left of the initial amount, in per cent. The low end stands for a greater loss, the high end for greater stability. By EC50 is commonly meant the concentration giving half of the maximal effect. High values mean a less potent agent, low ones a more potent agent.

The record behind these values is US7875587B2, “Peptide analogues of GIP for treatment of diabetes, insulin resistance and obesity” (UUTECH Limited, priority 2004, dated 2011).
